Measurements as given in patent US20200221654A9, “APPLICATIONS OF ROOT-ADMINISTERED CHEMICAL HYBRIDIZING AGENTS IN PLANT BREEDING” (BAYER CROPSCIENCE AKTIENGESELLSCHAFT, priority 2016, published 2020).

Columns and labels:
Format in all cases: in vivo
[1] = system: Wheat plants of the wheat varieties JB Asano and KWS Target; test: Male sterility after weekly root application (watering) of WL84811 to potted wheat plants, seed set of bagged ears (Example 2); details: for Average sterility relative to control after CHA: 1.0 mg/plant WL84811 in 100 ml water per treatment, 11 weekly root treatments (total 11.0 mg/plant), Zadok stage 31 to 65
Method: Wheat plants of the wheat varieties JB Asano and KWS Target were grown in the greenhouse in standard planting pots, bottom perforated, edge length 12 cm, height 13 cm, with one plant per pot. Twelve pots were placed into a plastic tray, bottom non-perforated with fleece inlay. Sandy loam from the field was filled into the pots ca. 2 cm below edge. Plants were grown under standard growing conditions with respect to fertilizer, watering, disease and light management. Each plant per pot was reduced to 4 tillers. The treatment was watering each pot with 0.0 mg (control) or 1.0 mg WL84811 in 100 ml tap water per pot. Each treatment was repeated on 2 plants per variety, watering with the treatment was done once a week for 11 weeks starting at Zadoks growth stage 31 until growth stage 65 of the control group. Ears were bagged to avoid unwanted cross-pollination. Bags were removed at beginning of grain filling (Zadoks stage 75 and higher), seed set was determined at kernel maturity of the control group. When ears had set seed, the ears were threshed by hand and the kernels per plant were counted. A wheat ear is called completely sterile (=100% sterility) when no kernel was developed on a bagged ear. The average number of grains per plant of the control plants was set to 0% sterility.

[2] = system: Wheat plants of the wheat varieties JB Asano and Apache; test: Male sterility after a single root application (watering) of Clofencet to potted wheat plants, seed set of bagged ears (Example 1); details: for Average sterility relative to control: 1 root treatment, Zadok stage 31
Method: Wheat plants of the wheat varieties JB Asano and Apache were grown in the greenhouse in standard planting pots, bottom perforated, edge length 12 cm, height 13 cm, with one plant per pot. Twelve pots were placed into a plastic tray, bottom non-perforated with fleece inlay (e.g. available at Hermann Meyer KG unter article no. 44 54 11). Standard greenhouse growing substrate soil (bedding substrate 1 of Klasmann-Deilmann GmbH) was filled into the pot ca. 2 cm below edge. Plants were grown under standard growing conditions with respect to fertilizer, watering, disease and light management. Each plant was reduced to 4 tillers. The necessary active amount of Clofencet per plant was calculated according to the standard foliar spray application protocol of 5.42 kg per hectare assuming 400 ears per square meter taking the higher tiller number of potted plants into account (average number of ears per plant in the field is typically 1.15 but it was 4 in our potted plants, so the dose rate for root application per plant, i.e. per pot, was adjusted upward). At Zadoks growth stage 31 the plants were watered with 0.0 mg (control), 10.84 mg, 16.26 mg and 21.68 mg, respectively, of Clofencet in 200 ml tap water per pot. Each treatment was repeated on 12 plants, whereas the highest concentration was repeated on 24 plants. Before flowering time (Zadoks stage 57 of control group) ears were bagged to avoid unwanted cross-pollination. Bags were removed at beginning of grain filling (Zadoks stage 75 and higher), seed set was determined at kernel ripeness of the control group. When ears carried mature seeds, the ears were threshed with a hand-threshing device (Baumann Dreschhexe #4.701.200) and the kernels per plant were counted. A wheat ear is called completely sterile (=100% sterility) when no kernel developed on a bagged ear. The average number of grains per plant of the control plants was set to 0% sterility.

[3] = system: Wheat plants of the wheat varieties JB Asano and Apache; test: Female fertility: seed set of Clofencet-treated male sterile plants after pollination with pollen from an untreated control plant (Example 3); details: for Average seed set of Clofencet treated plants after pollination with wheat pollen (rel. to control): 1 root treatment, Zadok stage 31
Text: Male sterile plants generated by Clofencet treatment as described in Example 1 were used. Before single bagging the 4 ears of each plant at Zadoks stages 55-59, flowers were clipped to facilitate pollination. At flowering time (spikelets wide open) three male-sterile ears (no pollen in the transparent bags) were pollinated with pollen from an untreated control plant of the same wheat variety. One sterile ear was not pollinated to cross check the efficacy of the Clofencet treatment. Bags were removed at beginning of grain filling (Zadoks stage 75 and higher), seed set was determined at kernel maturity. If ears had set seed, the ears were threshed with a hand-threshing device (Baumann Dreschhexe #4.701.200) and the kernels per plant were counted. The average number of grains per plant of the control plants was set to 100% seed set.

[4] = variety Apache, 10.84 mg/plant Clofencet in 200 ml water
[5] = variety Apache, 16.26 mg/plant Clofencet in 200 ml water
[6] = variety Apache, 21.68 mg/plant Clofencet in 200 ml water
[7] = variety JB Asano, 10.84 mg/plant Clofencet in 200 ml water
[8] = variety JB Asano, 16.26 mg/plant Clofencet in 200 ml water
[9] = variety JB Asano, 21.68 mg/plant Clofencet in 200 ml water

Structure (SMILES): O=C(O)C1CNC1 [WL84811, azetidine-3-carboxylic acid]
- generation of male sterility ([1]; regular weekly watering with 1.0 mg, root treatment): very effective to generate male sterility
- Average sterility relative to control after CHA ([1]; variety JB Asano): 100%
- Average sterility relative to control after CHA ([1]; variety KWS Target): 100%
- seed set of treated plants bagged before flowering ([1]; weekly 1.0 mg root treatment, bagged before flowering): No plant

Structure (SMILES): CCc1c(C(=O)O)c(=O)cnn1-c1ccc(Cl)cc1 [Clofencet, 2-(4-chlorophenyl)-3-ethyl-2,5-dihydro-5-oxopyridazine-4-carboxylic acid]
- further effect on male sterility at higher doses (data not shown) ([2]; doses of active substance higher than 21.68 mg per plant): do not have any further positive effect
- male sterility ([2]; single root application dose of 10.84 mg per plant with four tillers at growth stage 31): satisfying amount of average male sterility
- male sterility ([2]; single root application of 16.26 mg per plant at growth stage 31): ~100%
- Average sterility relative to control [2, 4]: 91.88%
- Average sterility relative to control [2, 5]: 98.69%
- Average sterility relative to control [2, 6]: 99.64%
- Average sterility relative to control [2, 7]: 94.72%
- Average sterility relative to control [2, 8]: 99.96%
- Average sterility relative to control [2, 9]: 98.65%
- seed set of bagged plants ([2]; watered once with an active dose of 16.26 mg or more in Zadoks stage 31): Almost no plants
- female fertility of the treated plants ([3]; root treatment once, pollinated with pollen of untreated control plants): does not harm the female fertility
- seed set compared to the control with 100% seed set ([3]; variety Apache): even seems to enhance seed set
- Average seed set of Clofencet treated plants after pollination with wheat pollen (rel. to control) [3, 4]: 101%
- Average seed set of Clofencet treated plants after pollination with wheat pollen (rel. to control) [3, 5]: 115%
- Average seed set of Clofencet treated plants after pollination with wheat pollen (rel. to control) [3, 6]: 107%
- Average seed set of Clofencet treated plants after pollination with wheat pollen (rel. to control) [3, 7]: 98%
- Average seed set of Clofencet treated plants after pollination with wheat pollen (rel. to control) [3, 8]: 94%
- Average seed set of Clofencet treated plants after pollination with wheat pollen (rel. to control) [3, 9]: 75%
